Reference: patent US20060229433A1, “Modified antiviral peptides with increased activity and cell membrane affinity” (priority 2003, published 2006)
Values joined by “and” are separate entries in the source; they are usually repeats but may differ in a detail not shown here. Equal values may be shown once. Peptide text beside a SMILES is read from it.

Key:
Assay type in all cases: cell-based
[1] = tested on: HIV-1 NL 4-3; assay: HIV-1 infection of C8166 cells (syncytia formation, p24 ELISA) with HIV-1 NL 4-3; design: key: ++, +, (+), (+)− and − represent decreasing numbers of syncitia formed; ++, +, (+), (+)− and − represent decreasing numbers of syncitia formed; ++, +, (+), (+)− and − represent decreasing numbers of syncitia formed; ++, +, (+), (+)− and − represent decreasing numbers of syncitia formed; ++, +, (+), (+)− and − represent decreasing numbers of syncitia formed; settings: Table 6
Summary of the method: (§1)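 C8166 T-cells were preincubated with peptide for 1 h at 37 °C, then exposed for 1 h to HIV-1 at 1000 TCID50/ml, washed, and cultured with peptide kept present throughout, with medium replaced at day 4. Infection was scored by syncytia formation and by supernatant p24 ELISA, with at least two runs in duplicate.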

[2] = tested on: HIV-1 NDK; assay: HIV-1 infection of C8166 cells (syncytia formation, p24 ELISA) with HIV-1 NDK; design: key to syncitia formed, Day 4 / syncitia formed, Day 5 / syncitia formed, Day 6 / syncitia formed, Day 7: ++, +, (+), (+)− and − represent decreasing numbers of syncitia formed; ++, +, (+), (+)− and − represent decreasing numbers of syncitia formed; ++, +, (+), (+)− and − represent decreasing numbers of syncitia formed; ++, +, (+), (+)− and − represent decreasing numbers of syncitia formed; ++, +, (+), (+)− and − represent decreasing numbers of syncitia formed; settings: for P 24: P 24 after Day 7
Description: HIV-1 NL 4-3 isolate (Adachi et al., 1986; Barré-Sinoussi et al., 1983) and highly cytopathic Zairian HIV-1 NDK isolate (Ellrodt et al., 1984) was propagated in permissive CEM cells (Nara et al., 1987). Uninfected CEM and C8166 (Salahuddin et al., 1983) were maintained in RPMI 1640 (R10) with ultraglutamine (cambrex, Vervier, Belgium), penicillin (100 U/ml), streptomycin (100 μg/ml), and 10% heat-inactivated fetal calf serum (Cambrex).
Samples of 3×10^5/100 μL C8166 cells were preincubated in 96-well microtiter plates in culture medium containing various concentrations of peptide. After a 1 h treatment at 37° C., 100 μl of diluted viral solution of HIV-1 was added. The cells were exposed to the virus for 1 h at 37° C. at a multiplicity of infection of 1000 TCID50 per ml. The cells were washed three times and cultured at 3×10^5/ml of R10 with the treatment in 24-well plates incubated at 37° C. C8166 culture medium was replaced at Day-4 post-infection. The treatment was permanent before virus adsorption, during virus adsorption and after infection. Assays on C8166 cells have been performed at least twice and in duplicate. Toxicity was evaluated by daily cell count and trypan-blue exclusion assay. Infection of C8166 T-cells with HIV-1 was assessed by virus-induced cytopathic effects (syncytia formation) and by quantification of cell free p24 viral protein in the culture supernatants. Measurements of HIV-1 p24^gag concentration in the culture supernatants were achieved by ELISA (ALLIANCE® HIV-1 p24 kit, Perkin Elmer, life sciences, USA).

[3] = tested on: HIV-1 NL 4-3; assay: HIV-1 infection of C8166 cells (syncytia formation, p24 ELISA) with HIV-1 NL 4-3; design: key to syncitia formed, Day 4 / syncitia formed, Day 5 / syncitia formed, Day 6 / syncitia formed, Day 7: ++, +, (+), (+)− and − represent decreasing numbers of syncitia formed; ++, +, (+), (+)− and − represent decreasing numbers of syncitia formed; ++, +, (+), (+)− and − represent decreasing numbers of syncitia formed; ++, +, (+), (+)− and − represent decreasing numbers of syncitia formed; ++, +, (+), (+)− and − represent decreasing numbers of syncitia formed
Summary of the method: as §1

[4] = C8166 cells, HIV-1 subtype B NL 4-3, Table 9, two lines = tested twice, 8 days apart

NCC(=O)N1CCC[C@H]1C(=O)NCC(=O)O [GPG, reference compound] (H-Gly-Pro-Gly-OH)
Day 4 syncitia formed ([1]; 0.005 μM): − | Day 5 syncitia formed ([1]; 0.005 μM): + | Day 6 syncitia formed ([1]; 0.005 μM): ++ | Day 4 syncitia formed ([1]; 0.01 μM): − | Day 5 syncitia formed ([1]; 0.01 μM): (+) | Day 6 syncitia formed ([1]; 0.01 μM): + | Day 7 syncitia formed ([1]; 0.01 μM): ++ | Day 4 syncitia formed ([1]; 0.05 μM): − | Day 5 syncitia formed ([1]; 0.05 μM): − | Day 6 syncitia formed ([1]; 0.05 μM): (+) | Day 7 syncitia formed ([1]; 0.05 μM): + | Day 4 syncitia formed ([1]; 0.1 μM): − | Day 5 syncitia formed ([1]; 0.1 μM): − | Day 6 syncitia formed ([1]; 0.1 μM): − | Day 7 syncitia formed ([1]; 0.1 μM): + | Day 4 syncitia formed ([1]; 0.5 μM): − | Day 5 syncitia formed ([1]; 0.5 μM): − | Day 6 syncitia formed ([1]; 0.5 μM): − | Day 7 syncitia formed ([1]; 0.5 μM): − | Day 4 syncitia formed ([1]; 1 μM): − | Day 5 syncitia formed ([1]; 1 μM): − | Day 6 syncitia formed ([1]; 1 μM): − | Day 7 syncitia formed ([1]; 1 μM): − | Day 4 syncitia formed ([1]; 5 μM): − | Day 5 syncitia formed ([1]; 5 μM): − | Day 6 syncitia formed ([1]; 5 μM): − | Day 7 syncitia formed ([1]; 5 μM): − | syncitia formed, Day 4 ([2]; 0.005 μM): + | syncitia formed, Day 5 ([2]; 0.005 μM): + | syncitia formed, Day 6 ([2]; 0.005 μM): ++ | syncitia formed, Day 7 ([2]; 0.005 μM): ++ | P 24 ([2]; 0.005 μM): 23810 pg/mL | syncitia formed, Day 4 ([2]; 0.01 μM): + | syncitia formed, Day 5 ([2]; 0.01 μM): + | syncitia formed, Day 6 ([2]; 0.01 μM): ++ | syncitia formed, Day 7 ([2]; 0.01 μM): ++ | P 24 ([2]; 0.01 μM): 23810 pg/mL | syncitia formed, Day 4 ([2]; 0.05 μM): (+) | syncitia formed, Day 5 ([2]; 0.05 μM): + | syncitia formed, Day 6 ([2]; 0.05 μM): ++ | syncitia formed, Day 7 ([2]; 0.05 μM): ++ | P 24 ([2]; 0.05 μM): 23810 pg/mL | syncitia formed, Day 4 ([2]; 0.1 μM): − | syncitia formed, Day 5 ([2]; 0.1 μM): + | syncitia formed, Day 6 ([2]; 0.1 μM): ++ | syncitia formed, Day 7 ([2]; 0.1 μM): ++ | P 24 ([2]; 0.1 μM): 23810 pg/mL | syncitia formed, Day 4 ([2]; 0.5 μM): − | syncitia formed, Day 5 ([2]; 0.5 μM): + | syncitia formed, Day 6 ([2]; 0.5 μM): ++ | syncitia formed, Day 7 ([2]; 0.5 μM): ++ | P 24 ([2]; 0.5 μM): 21110 pg/mL and 23810 pg/mL | syncitia formed, Day 4 ([2]; 1 μM): − | syncitia formed, Day 5 ([2]; 1 μM): (+) | syncitia formed, Day 6 ([2]; 1 μM): + | syncitia formed, Day 7 ([2]; 1 μM): + | P 24 ([2]; 1 μM): 3810 pg/mL and 2507 pg/mL | syncitia formed, Day 4 ([2]; 5 μM): − | syncitia formed, Day 5 ([2]; 5 μM): − | syncitia formed, Day 6 ([2]; 5 μM): − | syncitia formed, Day 7 ([2]; 5 μM): + | P 24 ([2]; 5 μM): 2733 pg/mL and 2400 pg/mL | IC50 ([2]; HIV 1 NDK, Table 10): 500 nM | IC100 ([2]; HIV 1 NDK, Table 10): >5 µM | Day 7 syncitia formed ([3]; 0.005 μM, Table 6): ++/T | syncitia formed, Day 4 ([3]; 0.01 μM, C8166 cells): (+) | syncitia formed, Day 5 ([3]; 0.01 μM, C8166 cells): (+) | syncitia formed, Day 6 ([3]; 0.01 μM, C8166 cells): + | syncitia formed, Day 7 ([3]; 0.01 μM, Day 7, C8166 cells): ++ | P 24 ([3]; 0.01 μM, P 24 after Day 7, C8166 cells): 9810 pg/mL and 15810 pg/mL | syncitia formed, Day 4 ([3]; 0.1 μM, C8166 cells): − | syncitia formed, Day 5 ([3]; 0.1 μM, C8166 cells): − | syncitia formed, Day 6 ([3]; 0.1 μM, C8166 cells): (+) | syncitia formed, Day 7 ([3]; 0.1 μM, Day 7, C8166 cells): + | P 24 ([3]; 0.1 μM, P 24 after Day 7, C8166 cells): 807 pg/mL and 1506 pg/mL | syncitia formed, Day 4 ([3]; 0.5 μM, C8166 cells): − | syncitia formed, Day 5 ([3]; 0.5 μM, C8166 cells): − | syncitia formed, Day 6 ([3]; 0.5 μM, C8166 cells): − and (+) | syncitia formed, Day 7 ([3]; 0.5 μM, Day 7, C8166 cells): (+) and + | syncitia formed, Day 4 ([3]; 1 μM, C8166 cells): − | syncitia formed, Day 5 ([3]; 1 μM, C8166 cells): − | syncitia formed, Day 6 ([3]; 1 μM, C8166 cells): − | syncitia formed, Day 7 ([3]; 1 μM, Day 7, C8166 cells): (+) | P 24 ([3]; 1 μM, P 24 after Day 7, C8166 cells): 62 pg/mL and 42 pg/mL | syncitia formed, Day 4 ([3]; 5 μM, C8166 cells): − | syncitia formed, Day 5 ([3]; 5 μM, C8166 cells): − | syncitia formed, Day 6 ([3]; 5 μM, C8166 cells): − | syncitia formed, Day 7 ([3]; 5 μM, Day 7, C8166 cells): − | IC50 [3, 4]: 10 nM | IC100 [3, 4]: 5 µM | P 24 ([3]; Day 7, 0.005 μM, Table 6): 23810 pg/mL | P 24 ([3]; Day 7, 0.01 μM, Table 6): 13850 pg/mL and 11756 pg/mL | P 24 ([3]; Day 7, 0.05 μM, Table 6): 7330 pg/mL and 9810 pg/mL | P 24 ([3]; Day 7, 1 μM, Table 6): 5.4 pg/mL and 3.8 pg/mL
